{"source": "patent US8802597B2", "about": "“Herbicidal pyrimidines” (E I du Pont de Nemours and Company, priority 2003, dated 2014)", "experiment_in_all_cases": "Test C pre/postemergence", "type_in_all_cases": "in vivo", "key": {"kochia (Kochia scoparia)": {"system": "kochia (Kochia scoparia)", "conditions": "Bassia scoparia, read-out: Plant response rating, Kochia; for pest or weed control at 250 g/ha: 250 g ai/ha; for pest or weed control at 500 g/ha: 500 g ai/ha", "procedure,_shortened": "(§1)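 Pre: seeds planted, sprayed same day. Post: 1- to 4-leaf plants (2–18 cm). Formulation: non-phytotoxic solvent + surfactant. Greenhouse 12–14 d; visual % control vs untreated, 0–100.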"}, "[1]": {"system": "yellow nutsedge (Cyperus esculentus)", "conditions": "Cyperus; for pest or weed control at 62 g/ha: 62 g ai/ha; for pest or weed control at 125 g/ha: 125 g ai/ha; for pest or weed control at 250 g/ha: 250 g ai/ha; for pest or weed control at 500 g/ha: 500 g ai/ha", "procedure,_shortened": "as §1"}, "[2]": {"system": "goosegrass (Eleusine indica)", "conditions": "Eleusine indica; for pest or weed control at 62 g/ha: 62 g ai/ha; for pest or weed control at 125 g/ha: 125 g ai/ha; for pest or weed control at 250 g/ha: 250 g ai/ha; for pest or weed control at 500 g/ha: 500 g ai/ha", "procedure,_shortened": "as §1"}, "[3]": {"system": "lambsquarters (Chenopodium album)", "conditions": "Chenopodium album; for pest or weed control at 62 g/ha: 62 g ai/ha; for pest or weed control at 125 g/ha: 125 g ai/ha; for pest or weed control at 250 g/ha: 250 g ai/ha; for pest or weed control at 500 g/ha: 500 g ai/ha", "procedure,_shortened": "as §1"}, "[4]": {"system": "cocklebur (Xanthium strumarium)", "conditions": "Xanthium strumarium; for pest or weed control at 62 g/ha: 62 g ai/ha; for pest or weed control at 125 g/ha: 125 g ai/ha; for pest or weed control at 250 g/ha: 250 g ai/ha; for pest or weed control at 500 g/ha: 500 g ai/ha", "procedure,_shortened": "as §1"}, "corn (Zea mays)": {"system": "corn (Zea mays)", "conditions": "Zea mays; for Corn plant response rating (crop injury, 0 = no effect, 100 = complete kill) at 62 g/ha: 62 g ai/ha; for Corn plant response rating (crop injury, 0 = no effect, 100 = complete kill) at 125 g/ha: 125 g ai/ha; for Corn plant response rating (crop injury, 0 = no effect, 100 = complete kill) at 250 g/ha: 250 g ai/ha; for Corn plant response rating (crop injury, 0 = no effect, 100 = complete kill) at 500 g/ha: 500 g ai/ha", "procedure,_shortened": "as §1"}, "[5]": {"conditions": "post-emergence, Postemergence, scale 0 to 100"}, "[6]": {"conditions": "pre-emergence, Preemergence, scale 0 to 100"}, "[7]": {"conditions": "post-emergence, Postemergence, scale 0 to 100 (0 no effect, 100 complete control), read-out: Nutsedge, Yellow plant response rating"}, "[8]": {"conditions": "post-emergence, Postemergence, scale 0 to 100, read-out: Plant response rating, Nutsedge, Yellow"}, "[9]": {"conditions": "pre-emergence, Preemergence, scale 0 to 100, read-out: Plant response rating, Nutsedge, Yellow"}, "[10]": {"conditions": "post-emergence, Postemergence, scale 0 to 100 (0 no effect, 100 complete control), read-out: Goosegrass plant response rating"}, "[11]": {"conditions": "post-emergence, Postemergence, scale 0 to 100, read-out: Plant response rating, Goosegrass"}, "[12]": {"conditions": "pre-emergence, Preemergence, scale 0 to 100, read-out: Plant response rating, Goosegrass"}, "[13]": {"conditions": "post-emergence, Postemergence, scale 0 to 100 (0 no effect, 100 complete control), read-out: Lambsquarters plant response rating"}, "[14]": {"conditions": "post-emergence, Postemergence, scale 0 to 100, read-out: Plant response rating, Lambsquarters"}, "[15]": {"conditions": "pre-emergence, Preemergence, scale 0 to 100, read-out: Plant response rating, Lambsquarters"}, "[16]": {"conditions": "post-emergence, Postemergence, scale 0 to 100 (0 no effect, 100 complete control), read-out: Cocklebur plant response rating"}, "[17]": {"conditions": "post-emergence, Postemergence, scale 0 to 100, read-out: Plant response rating, Cocklebur"}, "[18]": {"conditions": "pre-emergence, Preemergence, scale 0 to 100, read-out: Plant response rating, Cocklebur"}, "[19]": {"conditions": "post-emergence, Postemergence, scale 0 to 100 (0 no effect, 100 complete control), read-out: Corn plant response rating"}}, "note": "Where two headings read alike, the source gives them in different places.", "data": [{"molecule": "CCOC(=O)c1nc(C2CC2)nc(N)c1Br", "note": "[Compound 1, ethyl 6-amino-5-bromo-2-cyclopropyl-4-pyrimidinecarboxylate]", "values": [{"measurement": "pest or weed control at 250 g/ha", "setting": "kochia (Kochia scoparia); [5]", "result": 100, "unit": "%"}, {"measurement": "pest or weed control at 500 g/ha", "setting": "kochia (Kochia scoparia); [5]", "result": 100, "unit": "%"}, {"measurement": "pest or weed control at 62 g/ha", "setting": "kochia (Kochia scoparia); pre-emergence, Preemergence, 62 g ai/ha, scale 0 to 100, 0 no effect, 100 complete control", "result": 95, "unit": "%"}, {"measurement": "pest or weed control at 125 g/ha", "setting": "kochia (Kochia scoparia); pre-emergence, Preemergence, 125 g ai/ha, scale 0 to 100", "result": 100, "unit": "%"}, {"measurement": "pest or weed control at 250 g/ha", "setting": "kochia (Kochia scoparia); [6]", "result": 100, "unit": "%"}, {"measurement": "pest or weed control at 500 g/ha", "setting": "kochia (Kochia scoparia); [6]", "result": 100, "unit": "%"}, {"measurement": "pest or weed control at 62 g/ha", "setting": "[1]; [7]", "result": 0, "unit": "%"}, {"measurement": "pest or weed control at 125 g/ha", "setting": "[1]; [7]", "result": 0, "unit": "%"}, {"measurement": "pest or weed control at 250 g/ha", "setting": "[1]; [8]", "result": 5, "unit": "%"}, {"measurement": "pest or weed control at 500 g/ha", "setting": "[1]; [8]", "result": 5, "unit": "%"}, {"measurement": "pest or weed control at 62 g/ha", "setting": "[1]; pre-emergence, Preemergence, scale 0 to 100, 0 no effect, 100 complete control, read-out: Plant response rating, Nutsedge, Yellow", "result": 0, "unit": "%"}, {"measurement": "pest or weed control at 125 g/ha", "setting": "[1]; [9]", "result": 0, "unit": "%"}, {"measurement": "pest or weed control at 250 g/ha", "setting": "[1]; [9]", "result": 50, "unit": "%"}, {"measurement": "pest or weed control at 500 g/ha", "setting": "[1]; [9]", "result": 50, "unit": "%"}, {"measurement": "pest or weed control at 62 g/ha", "setting": "[2]; [10]", "result": 0, "unit": "%"}, {"measurement": "pest or weed control at 125 g/ha", "setting": "[2]; [10]", "result": 0, "unit": "%"}, {"measurement": "pest or weed control at 250 g/ha", "setting": "[2]; [11]", "result": 40, "unit": "%"}, {"measurement": "pest or weed control at 500 g/ha", "setting": "[2]; [11]", "result": 70, "unit": "%"}, {"measurement": "pest or weed control at 62 g/ha", "setting": "[2]; pre-emergence, Preemergence, scale 0 to 100, 0 no effect, 100 complete control, read-out: Plant response rating, Goosegrass", "result": 0, "unit": "%"}, {"measurement": "pest or weed control at 125 g/ha", "setting": "[2]; [12]", "result": 0, "unit": "%"}, {"measurement": "pest or weed control at 250 g/ha", "setting": "[2]; [12]", "result": 10, "unit": "%"}, {"measurement": "pest or weed control at 500 g/ha", "setting": "[2]; [12]", "result": 70, "unit": "%"}, {"measurement": "pest or weed control at 62 g/ha", "setting": "[3]; [13]", "result": 100, "unit": "%"}, {"measurement": "pest or weed control at 125 g/ha", "setting": "[3]; [13]", "result": 100, "unit": "%"}, {"measurement": "pest or weed control at 250 g/ha", "setting": "[3]; [14]", "result": 100, "unit": "%"}, {"measurement": "pest or weed control at 500 g/ha", "setting": "[3]; [14]", "result": 100, "unit": "%"}, {"measurement": "pest or weed control at 62 g/ha", "setting": "[3]; pre-emergence, Preemergence, scale 0 to 100, 0 no effect, 100 complete control, read-out: Plant response rating, Lambsquarters", "result": 95, "unit": "%"}, {"measurement": "pest or weed control at 125 g/ha", "setting": "[3]; [15]", "result": 100, "unit": "%"}, {"measurement": "pest or weed control at 250 g/ha", "setting": "[3]; [15]", "result": 100, "unit": "%"}, {"measurement": "pest or weed control at 500 g/ha", "setting": "[3]; [15]", "result": 100, "unit": "%"}, {"measurement": "pest or weed control at 62 g/ha", "setting": "[4]; [16]", "result": 90, "unit": "%"}, {"measurement": "pest or weed control at 125 g/ha", "setting": "[4]; [16]", "result": 100, "unit": "%"}, {"measurement": "pest or weed control at 250 g/ha", "setting": "[4]; [17]", "result": 100, "unit": "%"}, {"measurement": "pest or weed control at 500 g/ha", "setting": "[4]; [17]", "result": 100, "unit": "%"}, {"measurement": "pest or weed control at 62 g/ha", "setting": "[4]; pre-emergence, Preemergence, scale 0 to 100, 0 no effect, 100 complete control, read-out: Plant response rating, Cocklebur", "result": 90, "unit": "%"}, {"measurement": "pest or weed control at 125 g/ha", "setting": "[4]; [18]", "result": 100, "unit": "%"}, {"measurement": "pest or weed control at 250 g/ha", "setting": "[4]; [18]", "result": 100, "unit": "%"}, {"measurement": "pest or weed control at 500 g/ha", "setting": "[4]; [18]", "result": 100, "unit": "%"}, {"measurement": "Corn plant response rating (crop injury, 0 = no effect, 100 = complete kill) at 62 g/ha", "setting": "corn (Zea mays); [19]", "result": 10, "unit": "%"}, {"measurement": "Corn plant response rating (crop injury, 0 = no effect, 100 = complete kill) at 125 g/ha", "setting": "corn (Zea mays); [19]", "result": 15, "unit": "%"}, {"measurement": "Corn plant response rating (crop injury, 0 = no effect, 100 = complete kill) at 250 g/ha", "setting": "corn (Zea mays); [5]", "result": 40, "unit": "%"}, {"measurement": "Corn plant response rating (crop injury, 0 = no effect, 100 = complete kill) at 500 g/ha", "setting": "corn (Zea mays); [5]", "result": 45, "unit": "%"}, {"measurement": "Corn plant response rating (crop injury, 0 = no effect, 100 = complete kill) at 62 g/ha", "setting": "corn (Zea mays); pre-emergence, Preemergence, scale 0 to 100, 0 no effect, 100 complete control, read-out: Plant response rating, Corn", "result": 0, "unit": "%"}, {"measurement": "Corn plant response rating (crop injury, 0 = no effect, 100 = complete kill) at 125 g/ha", "setting": "corn (Zea mays); pre-emergence, Preemergence, scale 0 to 100, read-out: Plant response rating, Corn", "result": 0, "unit": "%"}, {"measurement": "Corn plant response rating (crop injury, 0 = no effect, 100 = complete kill) at 250 g/ha", "setting": "corn (Zea mays); [6]", "result": 50, "unit": "%"}, {"measurement": "Corn plant response rating (crop injury, 0 = no effect, 100 = complete kill) at 500 g/ha", "setting": "corn (Zea mays); [6]", "result": 70, "unit": "%"}]}]}
